Measured values: patent US8350084B2, “Alpha-(N-sulfonamido)acetamide compound as an inhibitor of beta amyloid peptide production” (priority 2007, dated 2013)
Entries after “also recorded” stand apart in the source; their conditions may differ.

Key:
[1] = test system: γ-secretase inhibitor binding sites in the brain; assay: Gamma-secretase site occupancy in rat brain; assay type: in vivo; settings: single dose 1 mg/kg, by 24 hours
Experimental: (§1) Female Harlan Sprague-Dawley rats (˜200-250 g) were dosed daily by oral gavage with a dosing vehicle of 99% PEG-400, 1% Tween-80 at 4 mL/kg in the morning. […] Plasma was obtained after centrifugation. […] CSF samples were centrifuged to remove cells or debris prior to dilution at 1:2 in 4% BSA and frozen for subsequent analysis.
Brain sections were cut coronally at a thickness of 20 μm on a cryostat and thaw-mounted onto Superfrost Plus slides. Sections were saved at the level of the rostral hippocampus, with 3 sections per slide at intervals of about 120 μm, and frozen at −20° C. until use. For occupancy studies, brain sections were warmed to room temperature, dried, incubated for 10 minutes in 50 mM HEPES buffer, pH 7.4, then transferred to the same buffer containing 1.5 nM [^3H]IN973 (Goldstein, M. E. et al., J. Pharmacol. Exp. Ther. (2007) 323:102-108) or [^3H] (R)-4-((N-(1-amino-4-methyl-1-oxopentan-2-yl)-4-chlorophenylsulfonamido)methyl)-N-(2-methoxyethyl)benzamide and incubated at room temperature for 10 minutes. To define nonspecific binding, adjacent sections were incubated in buffer containing [^3H]IN973 or [^3H] […] Optical densities (expressed as digital light units per square millimeter) over areas of interest were measured and expressed as a percent of vehicle control.

mouse Notch1-ΔE = settings: Notch IC50 / Aβ40 IC50, 95% CI=163-232
Experimental: Since inhibition of Notch signaling causes undesired, mechanism-based side effects, a cellular assay for Notch1-ΔE signaling was used to counterscreen γ-secretase inhibitors.
Hela cells were maintained in DMEM (GibcoBRL) containing 10% FBS (GibcoBRL), Penicillin/Streptomycin (GibcoBRL) and 2 mM L-glutamine (GibcoBRL). Cells were transiently transfected using TransIT-HelaMONSTER (Mires) according to the manufacturer's directions. Hela cells (ATCC) were plated 16 hours before transfection at a density of 4×10^6 cells per T175 flask in Hela growth media (DMEM (high glucose with HEPES) with glutamine, penicillin, streptomycin and 10% fetal bovine serum). […] Cells were plated into 96 well black Clearview plates (Packard) at a volume of 200 μL/well (1×10^4 cells) and incubated at 37° C. for 1.5 hours to allow cells to adhere to the plates. Test compounds were initially diluted in a 96 well polypropylene plate in 100% DMSO. […] Diluted compound solutions (10 μL) were added to the cell plate yielding a final 0.1% DMSO concentration. Cell plates containing compound were incubated overnight at 37° C. […] The plate was incubated at room temperature for 10 minutes before black backing was attached to the bottom of the plate and the signal was read on a TopCount (Packard). […]

brain Aβ40 = assay: Rat brain Abeta40 assay (252-TSD ELISA); settings: for Terminal Brain Abeta 40 5 hr: 5 hr after fourth dose; for Terminal Brain Abeta 40 12 hr: 12 hr after third dose; for Terminal Brain Abeta 40 24 hr: 24 hr after third dose
[2] = female, Sprague-Dawley, rat, in vivo
Experimental: Animals were euthanized 12 or 24 hours after the third dose or 5 hours after the fourth dose.

proximal duodenum = assay: Rat duodenum histopathology (GI toxicity); assay type: in vivo; settings: 100 mg/kg/day once daily for 4 days
Experimental: as §1
Following euthanasia by CO2 asphyxiation, approximately 3 cm long sections of the proximal duodenum were removed from the abdomen, rinsed with ice cold Phosphate buffered saline and placed into 10% buffered formalin prior to sectioning. Tissue sections of the duodenum were embedded in liquid paraffin, mounted onto blocks, and cut into triplicate sagittal (cross-luminal) ring sections and stained using the Periodic acid Schiff's base method prior to microscopic evaluation. All animals survived until scheduled necropsy was performed.

[3] = target: T1, human pregnane-X receptor (Homo sapiens, UniProt O75469); assay: PXR transactivation assay; assay type: cell-based; settings: hPXR transactivation, transfected HepG2 cells
T1 construct: expressed in transfected cells; host or cells: HepG2 cells (ATCC), transient transfection with Lipofectamine 2000
T1 sequence (O75469 1-434): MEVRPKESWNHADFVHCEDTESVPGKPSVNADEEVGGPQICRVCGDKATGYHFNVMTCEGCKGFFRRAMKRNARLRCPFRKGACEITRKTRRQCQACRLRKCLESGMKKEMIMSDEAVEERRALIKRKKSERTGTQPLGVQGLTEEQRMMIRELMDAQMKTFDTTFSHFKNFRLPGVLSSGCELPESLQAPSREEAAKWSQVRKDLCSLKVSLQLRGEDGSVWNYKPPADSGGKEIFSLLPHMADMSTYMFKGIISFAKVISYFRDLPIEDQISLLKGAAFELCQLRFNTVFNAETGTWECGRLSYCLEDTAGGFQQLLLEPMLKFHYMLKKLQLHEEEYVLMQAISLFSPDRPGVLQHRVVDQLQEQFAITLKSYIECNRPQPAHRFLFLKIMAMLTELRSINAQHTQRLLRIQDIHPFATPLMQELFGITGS
Text: Pregnane X receptor (PXR) is a nuclear hormone receptor principally responsible for the induction of cytochrome P450 (CYP) 3A4, which plays a major role in metabolizing many clinically prescribed drugs. It is well known that the induction of CYP3A4 can cause either drug-drug interaction by increasing the metabolic clearance of co-administered CYP3A4 substrates (Bertilsson, G. et al., Proc. Nat. Acad. Sci. USA (1998) 95: 12208-12213; Lehmann, J. M. et al., J. Clin. Invest. (1998) 102: 1016-1023) or can cause loss of drug exposure due to autoinduction. Characterizing the induction potential of discovery or development drug candidates has become an important screen throughout the pharmaceutical industry. A PXR transactivation assay is used to assess the induction potential of CYP3A4, and a cytotoxicity assay of HepG2 cells is used to monitor the assay interference due to cytotoxicity.
Cell culture medium used is DMEM. Lipofectamine 2000, PBS, trypsin-EDTA (0.25%), and penicillin-streptomycin were purchased from GIBCO/Invitrogen (Carlsbad, Calif.). […]
Cells in each flask are washed with PBS and 4 mL of Trypsin-EDTA (0.25%) is added and incubated for one minute at room temperature. […] Cells are then counted and diluted in media to 3.0×10^5 cells/mL. […] After fifteen minutes, plates are read on a Viewlux (Perkin-Elmer) plate reader. […]

CYP3A4 mRNA = settings: human, 3 days, 20 μM
Experimental: Fa2N-4 cells and MFE Support Media F were provided by XenoTech, LLC (Lenexa, Kans.).
Fa2N-4 cells were supplied on 12-well, collagen-coated plates at a seeding density of 0.67×10^6 cells per well. Upon the receipt of the cells, the media were changed and the cells maintained overnight in a humidified, CO2-supplied incubator. After this adaptation period, the cells were examined under a light microscope and a determination was made as to whether the cells were morphologically normal and suitable for use. During the treatment period, the cells were visually inspected on a daily basis; cellular morphology, confluency, and signs of toxicity due to the test article were documented as necessary. […] Fa2N-4 cells were exposed to the test articles for a total of 3 days. The culture medium was replaced daily with fresh medium containing the test articles. After a total of ˜72 hours of exposure, medium was aspirated and the cells washed once with warm phosphate buffered saline solution before adding the cell lysis buffer (Qiagen, Valencia, Calif.).

SMILES: NC(=O)[C@@H](CCC(F)(F)F)N(Cc1ccc(-c2ncon2)cc1F)S(=O)(=O)c1ccc(Cl)cc1 [(2R)-2-[[(4-chlorophenyl)sulfonyl][[2-fluoro-4-(1,2,4-oxadiazol-3-yl)phenyl]methyl]amino]-5,5,5-trifluoropentanamide]
- brain γ-secretase site occupancy [1]: gradually returned to baseline values
- Notch/APP selectivity (mouse Notch1-ΔE): 193 X
- Terminal Brain Abeta 40 5 hr (brain Aβ40; Study No. 1, 3 mg/kg/day): 39% Veh
- Terminal Brain Abeta 40 12 hr (brain Aβ40; Study No. 1, 3 mg/kg/day): 35% Veh
- Terminal Brain Abeta 40 24 hr (brain Aβ40; Study No. 1, 3 mg/kg/day): 92% Veh
- Terminal Brain Abeta 40 5 hr (brain Aβ40; Study No. 1, 10 mg/kg/day): 12% Veh
- Terminal Brain Abeta 40 12 hr (brain Aβ40; Study No. 1, 10 mg/kg/day): 9% Veh
- Terminal Brain Abeta 40 24 hr (brain Aβ40; Study No. 1, 10 mg/kg/day): 28% Veh
- Terminal Brain Abeta 40 5 hr (brain Aβ40; Study No. 1, 30 mg/kg/day): 8% Veh
- Terminal Brain Abeta 40 12 hr (brain Aβ40; Study No. 1, 30 mg/kg/day): 9% Veh
- Terminal Brain Abeta 40 24 hr (brain Aβ40; Study No. 1, 30 mg/kg/day): 13% Veh
- Terminal Brain Abeta 40 5 hr (brain Aβ40; Study No. 2, 3 mg/kg/day): 16% Veh
- Terminal Brain Abeta 40 12 hr (brain Aβ40; Study No. 2, 3 mg/kg/day): 34% Veh
- Terminal Brain Abeta 40 24 hr (brain Aβ40; Study No. 2, 3 mg/kg/day): 94% Veh
- Terminal Brain Abeta 40 5 hr (brain Aβ40; Study No. 2, 10 mg/kg/day): 6% Veh
- Terminal Brain Abeta 40 12 hr (brain Aβ40; Study No. 2, 10 mg/kg/day): 4% Veh
- Terminal Brain Abeta 40 24 hr (brain Aβ40; Study No. 2, 10 mg/kg/day): 23% Veh
- Terminal Brain Abeta 40 5 hr (brain Aβ40; Study No. 2, 30 mg/kg/day): 6% Veh
- Terminal Brain Abeta 40 12 hr (brain Aβ40; Study No. 2, 30 mg/kg/day): 4% Veh
- Terminal Brain Abeta 40 24 hr (brain Aβ40; Study No. 2, 30 mg/kg/day): 15% Veh
- Terminal Brain Abeta 40 5 hr (brain Aβ40; Study No. 2, 100 mg/kg/day): 3% Veh
- Terminal Brain Abeta 40 12 hr (brain Aβ40; Study No. 2, 100 mg/kg/day): 3% Veh
- Terminal Brain Abeta 40 24 hr (brain Aβ40; Study No. 2, 100 mg/kg/day): 7% Veh
- Day 7 5 hr Brain Aβ40 (brain Aβ40; Study No. 3, 30 mg/kg/day): 13% Veh
- Day 7 5 hr Brain Aβ40 (brain Aβ40; Study No. 3, 300 mg/kg/day): 13% Veh
- compound exposures after 3 doses relative to exposures after the initial dose [2]: ≤ 2 fold
- histological evaluation of duodenal tissue (proximal duodenum): ⅓ rats dosed with 100 mg/kg/day had mild lesions; also recorded: slight goblet cell metaplasia
- EC20A (20% of the Rifampicin response at 10 μM) [3]: 6.9 µM
- EC60A (60% of the Rifampicin response at 10 μM) [3]: greater than 16.7 μM
- induction as % of the induction response caused by rifampicin (CYP3A4 mRNA): 22%
